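All cell lines were grown in 96-well plates and treated with compound for 48 hours. GI50 = concentration required for 50% inhibition of growth.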 Activity calls are given as the source filed them. Cut-off read from the data, not from the text of the source: active = GI50 up to about 1.1 µM and inactive = higher.
How the values were obtained:
Experiment in all cases: DTP human tumour cell line panel, 48 h
SK-OV-3 = tested on: SK-OV-3
UACC-257 = tested on: UACC-257
SK-MEL-5 = tested on: SK-MEL-5
ACHN = tested on: ACHN
SF-539 = tested on: SF-539
A498 = tested on: A498
DU-145 = tested on: DU-145
OVCAR-3 = tested on: OVCAR-3
SNB-19 = tested on: SNB-19
OVCAR-4 = tested on: OVCAR-4
HL-60 = tested on: HL-60
A549 = tested on: A549
UACC-62 = tested on: UACC-62
HCC 2998 = tested on: HCC 2998
SK-MEL-28 = tested on: SK-MEL-28
UO-31 = tested on: UO-31
OVCAR-8 = tested on: OVCAR-8
NCI-H23 = tested on: NCI-H23
M14 = tested on: M14
K562 = tested on: K562

Row | SMILES | GI50 (SK-OV-3) | GI50 (UACC-257) | GI50 (SK-MEL-5) | GI50 (ACHN) | GI50 (SF-539) | GI50 (A498) | GI50 (DU-145) | GI50 (OVCAR-3) | GI50 (SNB-19) | GI50 (OVCAR-4) | GI50 (HL-60) | GI50 (A549) | GI50 (UACC-62) | GI50 (HCC 2998) | GI50 (SK-MEL-28) | GI50 (UO-31) | GI50 (OVCAR-8) | GI50 (NCI-H23) | GI50 (M14) | GI50 (K562)
1 | COc1ccc(CSCc2cc(OC)c(OC)c(OC)c2)cc1 | > 100 µM (inactive) | > 31.6 µM (inactive) | 21.2 µM (inactive) | > 100 µM (inactive) | > 71.9 µM (inactive) | > 100 µM (inactive) | > 100 µM (inactive) | > 100 µM (inactive) | > 68.1 µM (inactive) | > 100 µM (inactive) | 5.92 µM (inactive) | > 100 µM (inactive) | > 43 µM (inactive) | > 31.6 µM (inactive) | > 100 µM (inactive) | > 100 µM (inactive) | > 31.6 µM (inactive) | > 76 µM (inactive) | > 54.5 µM (inactive) | 33.8 µM (inactive)
2 | CC(=O)O[C@H]1C#C/C=C\C#CC[C@@H]2C(=O)N[C@@H]12 | 57.8 µM (inactive) | > 42.4 µM (inactive) | 29.9 µM (inactive) | 3.5 µM (inactive) | 0.726 µM (active) | 21.6 µM (inactive) | 19.2 µM (inactive) | > 78.3 µM (inactive) | 31.3 µM (inactive) | > 100 µM (inactive) | 1.99 µM (inactive) | 28.7 µM (inactive) | 26.4 µM (inactive) | 25.1 µM (inactive) | 93.3 µM (inactive) | 3.13 µM (inactive) | 19.8 µM (inactive) | 11.2 µM (inactive) | 43.8 µM (inactive) | > 62.8 µM (inactive)
3 | Cc1nc2ccc(S(=O)(=O)O)cc2c(=O)n1-c1ccc(C(=O)NN2C(=O)C(Cl)C2c2cccs2)cc1 (centres undefined) | > 100 µM (inactive) | > 100 µM (inactive) | > 100 µM (inactive) | > 100 µM (inactive) | 48 µM (inactive) | > 100 µM (inactive) | > 100 µM (inactive) | > 100 µM (inactive) | > 100 µM (inactive) | 24.5 µM (inactive) | 17.8 µM (inactive) | > 100 µM (inactive) | > 100 µM (inactive) | > 100 µM (inactive) | > 100 µM (inactive) | > 100 µM (inactive) | > 100 µM (inactive) | > 100 µM (inactive) | 18.2 µM (inactive) | > 100 µM (inactive)
4 | C=CCOCCCCC(C(C)=O)C(=O)OC (centres undefined) | > 100 µM (inactive) | > 100 µM (inactive) | > 100 µM (inactive) | > 100 µM (inactive) | > 100 µM (inactive) | > 100 µM (inactive) | > 100 µM (inactive) | > 100 µM (inactive) | > 100 µM (inactive) | > 100 µM (inactive) | > 100 µM (inactive) | > 100 µM (inactive) | > 100 µM (inactive) | > 100 µM (inactive) | > 100 µM (inactive) | > 100 µM (inactive) | > 100 µM (inactive) | > 100 µM (inactive) | > 100 µM (inactive) | > 100 µM (inactive)
5 | O=C(Nc1ccc(Cl)cc1)NS(=O)(=O)c1ccc2c(c1)CCC2 [SULOFENUR] | 25.8 µM (inactive) | 50.7 µM (inactive) | 26.9 µM (inactive) | 29.4 µM (inactive) | 28.3 µM (inactive) | 45 µM (inactive) | 24 µM (inactive) | 24.3 µM (inactive) | 40.9 µM (inactive) | 54.8 µM (inactive) | 2.4 µM (inactive) | 32.7 µM (inactive) | 23.9 µM (inactive) | 31.6 µM (inactive) | 43.9 µM (inactive) | 25.1 µM (inactive) | 40.8 µM (inactive) | 28.1 µM (inactive) | 37.9 µM (inactive) | 10.2 µM (inactive)
6 | COC1CC(N)C(O)C(C)O1 (centres undefined) | > 100 µM (inactive) | > 100 µM (inactive) | > 100 µM (inactive) | > 100 µM (inactive) | > 100 µM (inactive) | > 100 µM (inactive) | > 100 µM (inactive) | > 100 µM (inactive) | > 100 µM (inactive) | > 100 µM (inactive) | > 100 µM (inactive) |  | > 100 µM (inactive) | > 100 µM (inactive) | > 100 µM (inactive) | > 100 µM (inactive) | > 100 µM (inactive) | > 100 µM (inactive) | > 100 µM (inactive) | > 100 µM (inactive)
7 | N=C1OC(c2cccc(Cl)c2)C(NNS(=O)(=O)c2ccccc2)=C1O (centres undefined) | > 100 µM (inactive) | 33.3 µM (inactive) | 41.7 µM (inactive) | 31.6 µM (inactive) | 33.4 µM (inactive) | > 100 µM (inactive) | > 100 µM (inactive) | 23.1 µM (inactive) | 55.5 µM (inactive) | 52.5 µM (inactive) | 2.87 µM (inactive) | 80.9 µM (inactive) | 24.9 µM (inactive) | 36.4 µM (inactive) | 20.9 µM (inactive) | 26.6 µM (inactive) | 30.5 µM (inactive) | 25.8 µM (inactive) | 22.4 µM (inactive) | 3.69 µM (inactive)
8 | COC(=O)c1ccc(O)c2nc3c(C=O)c(O)cc(O)c3nc12 [LOMOFUNGIN] | 2.96 µM (inactive) | 0.782 µM (active) | 0.953 µM (active) | 0.32 µM (active) | 0.0585 µM (active) | 1.22 µM (inactive) | 0.685 µM (active) | 4.65 µM (inactive) | 1.9 µM (inactive) | 2.76 µM (inactive) | 0.293 µM (active) | 0.396 µM (active) | 1.27 µM (inactive) | 4.93 µM (inactive) | 1.93 µM (inactive) | 0.225 µM (active) | 0.0439 µM (active) | 0.139 µM (active) | 0.592 µM (active) | 0.0847 µM (active)
9 | C=C1CC2(C)CCC(OC(=O)C3(C)OC3C)C(C)(OC(C)=O)C2CC1=C(C)C (centres undefined) | > 100 µM (inactive) | > 100 µM (inactive) | > 100 µM (inactive) | > 100 µM (inactive) | > 100 µM (inactive) | > 100 µM (inactive) | > 100 µM (inactive) | > 100 µM (inactive) | > 100 µM (inactive) | > 100 µM (inactive) | 24.9 µM (inactive) | > 100 µM (inactive) | > 100 µM (inactive) | > 100 µM (inactive) | > 100 µM (inactive) | > 100 µM (inactive) | > 100 µM (inactive) | > 100 µM (inactive) | > 100 µM (inactive) | > 100 µM (inactive)
10 | C=CCSC1=N/C(=C\c2ccc(Cl)cc2)C(=O)N1CC=C | 42.8 µM (inactive) | 26.4 µM (inactive) | 16.1 µM (inactive) | 32.6 µM (inactive) | 28.8 µM (inactive) | 13.6 µM (inactive) | 20.5 µM (inactive) | 43.7 µM (inactive) | 91.4 µM (inactive) | 21.5 µM (inactive) | 9.35 µM (inactive) | 32.7 µM (inactive) | 30.2 µM (inactive) | 34.8 µM (inactive) | 50.2 µM (inactive) | 34.7 µM (inactive) | 47.2 µM (inactive) | 24.6 µM (inactive) | 66.2 µM (inactive) | 29.5 µM (inactive)
11 | CC(=O)Nc1ccc(NC(=O)c2c(Cl)c(Cl)c(Cl)c(Cl)c2-c2nc3ccccc3[nH]2)cc1 | 63.4 µM (inactive) | 40.1 µM (inactive) | 28.6 µM (inactive) | 39.2 µM (inactive) | 38.5 µM (inactive) | 35 µM (inactive) | 46.8 µM (inactive) | 48.1 µM (inactive) | 54.2 µM (inactive) | 45.2 µM (inactive) | 25.9 µM (inactive) | 36.4 µM (inactive) | 27.8 µM (inactive) | 33.6 µM (inactive) | 40.2 µM (inactive) | 47.5 µM (inactive) | 45.1 µM (inactive) | 32.5 µM (inactive) | 35.7 µM (inactive) | 27.5 µM (inactive)
12 | O=C(O)/C(=C/c1ccccc1)c1ccccc1 | > 100 µM (inactive) | > 100 µM (inactive) | > 100 µM (inactive) | > 100 µM (inactive) | > 100 µM (inactive) | > 100 µM (inactive) | > 100 µM (inactive) | > 100 µM (inactive) | > 100 µM (inactive) | > 100 µM (inactive) | > 100 µM (inactive) | > 100 µM (inactive) | > 100 µM (inactive) | > 100 µM (inactive) | > 100 µM (inactive) | > 100 µM (inactive) | > 100 µM (inactive) | > 100 µM (inactive) | > 100 µM (inactive) | > 100 µM (inactive)
13 | O=c1oc2ccccc2c(Nc2ccc3c(c2)Oc2ccccc2O3)c1[N+](=O)[O-] | 19.1 µM (inactive) | 30.3 µM (inactive) | 20.4 µM (inactive) | 16.3 µM (inactive) | 19.2 µM (inactive) | 27 µM (inactive) | 29.6 µM (inactive) | 24.6 µM (inactive) | 17.5 µM (inactive) | 23.9 µM (inactive) | > 100 µM (inactive) | 32.4 µM (inactive) | 17.7 µM (inactive) | 28.1 µM (inactive) | 21.2 µM (inactive) | > 100 µM (inactive) | 18.8 µM (inactive) | 20.3 µM (inactive) | 30.3 µM (inactive) | 51.8 µM (inactive)
14 | c1ccc2c(c1)nc1n2CCNC1 | > 100 µM (inactive) | > 100 µM (inactive) | > 100 µM (inactive) | > 100 µM (inactive) | > 100 µM (inactive) | > 100 µM (inactive) | > 100 µM (inactive) | 63 µM (inactive) | > 100 µM (inactive) | > 100 µM (inactive) | > 100 µM (inactive) | > 100 µM (inactive) | > 100 µM (inactive) | > 100 µM (inactive) | > 100 µM (inactive) | > 100 µM (inactive) | > 100 µM (inactive) | > 100 µM (inactive) | > 100 µM (inactive) | > 100 µM (inactive)

Reference: ChEMBL document CHEMBL1201862, “PubChem BioAssay data set” (2004)
